The record followed here is patent US20190256509A1, “HISTONE DEMETHYLASE INHIBITORS” (CHRYSALIS, INC., priority 2016, published 2019).

Where only a bound is given, the exact number is not on record here.

This assay addresses T1, KDM5B enzyme (Homo sapiens, UniProt Q9UGL1).
T1 construct: Reaction Biology Corp (named for the assay, not expressly for the enzyme)
The assay is described as follows: KDM5B HTRF (TR-FRET) demethylase inhibition assay. The assay is classed as biochemical. To be noted: 1.2 nM KDM5B, 30 nM Biotin-H3K4Me3 1-21 substrate, 10 point dose-response. Here is the method: Ten point dose-response curves for the compounds of Examples 1-135 were determined using a homogeneous time resolved fluorescence (HTRF) assay (Reaction Biology Corp, Malvern, Pa.). This assay combines fluorescence resonance energy transfer (FRET) with time resolve (TR) measurements (TR-FRET). The KDM5B α-ketoglutarate-dependent demethylase activity is calculated by measuring demethylation of a biotin labeled histone tri-methylated H3K4 substrate using an europium-cryptate (Eu)-labeled antibody donor specific for dimethylated histone H3K4 and a Streptavidin-XL665 acceptor that binds to the biotin group of substrate, and detecting FRET by exciting the reaction mixture at 320 nm and reading dual emissions at 615 nm and 665 nm.
Briefly, compounds disclosed herein were solubilized in DMSO and a series of 10, three-fold serial dilutions were made for each compound in 100% DMSO. The initial starting concentration for the serial dilutions of each compound was 10 μM or 100 μM. Control samples lacking compound, KDM5B enzyme or various reaction components also were prepared and processed in parallel with compound test samples.
An aliquot of each serial dilution of test compound was added to a 384 well plate (Corning Cat #3572) containing 1.2 nM KDM5B enzyme suspended in 50 mM Hepes, pH7.5, 50 mM NaCl, 0.01% Tween 20, 0.1% BSA, and 1% DMSO (final concentrations) in a 10 microliter reaction volume using a LABCYTE ECHO liquid handler. The samples were mixed, subjected to centrifugation and the plate was pre-incubated at room temperature for 15 minutes (min), to which 30 nM Biotin-H3K4Me3 1-21 substrate (Anaspec, Freemont Calif., Cat #64192), 20 μM Fe(II) and 20 μM α-ketoglutarate co-factors, and 100 μM Ascorbate were added to initiate the enzymatic reaction. The reaction mixture was incubated at room temperature for 45 minutes. A 10 μl aliquot of a detection mixture of Eu-labeled anti-histone H3K4Me2 antibody (CisBIO, Bedford Mass., Cat #610AXLB) and Streptavidin-XL665 (CisBIO, Bedford Mass., Cat #610 SAXLB) in 200 mM potassium fluoride and 10 mM EDTA was added and kinetic measurements were read at 5 minute intervals for a period of 30 minutes using an Envision Multiplate Reader (PerkinElmer Model 2102; excitation at 320 nm and emission reads at 615 nm and 665 nm). The IC50 value for each compound was determined from the 665/615 ratio obtained for each 10 point dose-response curve using GraphPad Prism 4 software with a sigmodial dose response.
For orientation: In TR-FRET formats the signal depends on donor and acceptor labels being close together.

T1 sequence (Q9UGL1 whole entry): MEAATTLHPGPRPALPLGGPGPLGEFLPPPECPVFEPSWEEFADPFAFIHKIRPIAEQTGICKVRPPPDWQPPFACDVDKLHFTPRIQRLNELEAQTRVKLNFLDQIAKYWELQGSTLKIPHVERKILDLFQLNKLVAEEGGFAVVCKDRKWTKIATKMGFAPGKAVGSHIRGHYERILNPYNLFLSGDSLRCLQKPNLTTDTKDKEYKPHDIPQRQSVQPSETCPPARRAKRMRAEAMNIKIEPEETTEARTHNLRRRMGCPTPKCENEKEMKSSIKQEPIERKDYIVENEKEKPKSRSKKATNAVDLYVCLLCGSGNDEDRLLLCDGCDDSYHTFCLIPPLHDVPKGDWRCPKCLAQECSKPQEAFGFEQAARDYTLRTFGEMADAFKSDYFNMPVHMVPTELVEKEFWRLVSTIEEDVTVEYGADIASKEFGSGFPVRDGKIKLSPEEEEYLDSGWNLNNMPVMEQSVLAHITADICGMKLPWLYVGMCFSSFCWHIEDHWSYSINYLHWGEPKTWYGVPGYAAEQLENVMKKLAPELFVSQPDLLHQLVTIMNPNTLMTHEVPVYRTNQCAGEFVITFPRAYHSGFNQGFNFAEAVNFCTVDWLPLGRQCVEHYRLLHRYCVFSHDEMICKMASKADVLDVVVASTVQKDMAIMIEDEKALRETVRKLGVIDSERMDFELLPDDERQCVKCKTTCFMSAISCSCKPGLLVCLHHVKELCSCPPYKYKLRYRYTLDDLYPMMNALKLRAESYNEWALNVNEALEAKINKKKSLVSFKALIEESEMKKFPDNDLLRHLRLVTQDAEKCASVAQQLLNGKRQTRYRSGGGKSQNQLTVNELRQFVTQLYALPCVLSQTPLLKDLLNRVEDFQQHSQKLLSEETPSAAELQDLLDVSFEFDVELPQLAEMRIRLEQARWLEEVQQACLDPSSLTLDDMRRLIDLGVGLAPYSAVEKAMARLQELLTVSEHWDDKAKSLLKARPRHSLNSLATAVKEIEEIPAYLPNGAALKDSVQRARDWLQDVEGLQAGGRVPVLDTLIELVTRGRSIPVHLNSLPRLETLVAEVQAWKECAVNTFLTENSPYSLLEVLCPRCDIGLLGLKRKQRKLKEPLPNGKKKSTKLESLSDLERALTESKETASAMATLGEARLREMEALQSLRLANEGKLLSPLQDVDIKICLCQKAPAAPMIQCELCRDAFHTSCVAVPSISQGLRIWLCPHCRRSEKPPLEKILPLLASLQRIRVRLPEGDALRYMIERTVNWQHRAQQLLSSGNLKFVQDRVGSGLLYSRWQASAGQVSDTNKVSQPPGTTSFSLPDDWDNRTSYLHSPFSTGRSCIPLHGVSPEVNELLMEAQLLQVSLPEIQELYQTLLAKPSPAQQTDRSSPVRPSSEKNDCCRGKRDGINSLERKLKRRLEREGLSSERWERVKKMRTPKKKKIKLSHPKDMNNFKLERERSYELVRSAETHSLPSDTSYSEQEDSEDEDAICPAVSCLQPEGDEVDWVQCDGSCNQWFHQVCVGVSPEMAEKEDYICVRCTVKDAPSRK

The IC50 is the concentration needed to halve the response being measured. A low value points to greater potency. `COc1ccc(CNc2ccc3nccn3c2C(=O)O)c(OC)c1` [Example 1] showed an IC50 not above 500 nM.

For the molecule `O=C(O)c1c(NCc2ccccc2C(F)(F)F)ccc2nccn12` [Example 2], the IC50 is 500 to 1000 nM.

As for `O=C(O)c1c(NCc2ccc(Cl)c(C(F)(F)F)c2)ccc2nccn12` [Example 3], the half-maximal inhibitory concentration (IC50) was 500 to 1000 nM.

In the case of `O=C(O)c1c(NCc2cccc(Br)c2)ccc2nccn12` [Example 4], the IC50 is not above 500 nM.

For the molecule `O=C(O)c1c(NCc2cc(C(F)(F)F)ccc2Cl)ccc2nccn12` [Example 5], the IC50 is more than 1000 nM.

`O=C(O)c1c(NCc2cc(C(F)(F)F)cc(C(F)(F)F)c2)ccc2nccn12` [Example 6] had an IC50 of more than 1000 nM.

As for `O=C(O)c1c(NCc2ccc(-c3ccccc3)cc2)ccc2nccn12` [Example 7], the IC50 was more than 1000 nM.

Consider `COc1cc(Cl)ccc1CNc1ccc2nccn2c1C(=O)O` [Example 8], for which the IC50 is not above 500 nM.

Regarding `O=C(O)c1c(NCc2cccc(Cl)c2Cl)ccc2nccn12` [Example 9], the IC50 was more than 1000 nM.

As to `O=C(O)c1c(NCc2c(Cl)cccc2Cl)ccc2nccn12` [Example 10], the IC50 was more than 1000 nM.

For the molecule `COc1ccc(F)c(CNc2ccc3nccn3c2C(=O)O)c1F` [Example 11], the IC50 was more than 1000 nM.

Molecule `O=C(O)c1c(NCc2ccccc2OC(F)F)ccc2nccn12` [Example 12] yielded an IC50 of 500 to 1000 nM.

Consider `O=C(O)c1c(NCc2ccc(F)cc2Cl)ccc2nccn12` [Example 13], for which the IC50 is not above 500 nM.

`Cc1cccc(Cl)c1CNc1ccc2nccn2c1C(=O)O` [Example 14]: the IC50 was more than 1000 nM.

Molecule `O=C(O)c1c(NCc2ccccc2Cl)ccc2nccn12` [Example 15] yielded an IC50 of 500 to 1000 nM.

As to `O=C(O)c1c(NCc2cccc(C(F)(F)F)c2F)ccc2nccn12` [Example 16], the IC50 is more than 1000 nM.

Molecule `COc1ccccc1CNc1ccc2nccn2c1C(=O)O` [Example 17] gave an IC50 of more than 1000 nM.

On to `O=C(O)c1c(NCc2cc(Cl)cc(Cl)c2)ccc2nccn12` [Example 18], for which the IC50 is more than 1000 nM.

Turning to `O=C(O)c1c(NCc2cccc(OC(F)F)c2)ccc2nccn12` [Example 19], the IC50 is more than 1000 nM.

Molecule `Cc1c(F)cccc1CNc1ccc2nccn2c1C(=O)O` [Example 20] displayed an IC50 of more than 1000 nM.

In the case of `CN1CCN(c2ccc(CNc3ccc4nccn4c3C(=O)O)cc2)CC1` [Example 21], the IC50 was not above 500 nM.

For the molecule `O=C(O)c1c(NCc2ccc(OC(F)F)cc2)ccc2nccn12` [Example 22], the IC50 was more than 1000 nM.

With `O=C(O)c1c(NCc2ccc(F)cc2)ccc2nccn12` [Example 23], the IC50 is not above 500 nM.

The molecule `COc1ccc(CNc2ccc3nccn3c2C(=O)O)cc1` [Example 24] came in with an IC50 of more than 1000 nM.

`CC(C)(C)c1ccc(CNc2ccc3nccn3c2C(=O)O)cc1` [Example 25] showed an IC50 of more than 1000 nM.

With `Cc1ccc(Cl)cc1CNc1ccc2nccn2c1C(=O)O` [Example 26], the IC50 was 500 to 1000 nM.

As to `O=C(O)c1c(NCc2ccc(N3CCCCC3)cc2)ccc2nccn12` [Example 27], the IC50 was more than 1000 nM.

For `CC(C)Oc1ccc(CNc2ccc3nccn3c2C(=O)O)cc1` [Example 28], the IC50 is more than 1000 nM.

Turning to `O=C(O)c1c(NCc2ccc3occc3c2)ccc2nccn12` [Example 29], the IC50 is 500 to 1000 nM.

Take `O=C(O)c1c(NCc2ccc3sccc3c2)ccc2nccn12` [Example 30]: the IC50 is more than 1000 nM.

With `O=C(O)c1c(NCc2cccc3ccccc23)ccc2nccn12` [Example 31], the IC50 is more than 1000 nM.

Regarding `CN1CCN(c2ccccc2CNc2ccc3nccn3c2C(=O)O)CC1` [Example 32], the half-maximal inhibitory concentration (IC50) is not above 500 nM.

Take `Cc1ccc(CNc2ccc3nccn3c2C(=O)O)c(F)c1F` [Example 33]: the IC50 was more than 1000 nM.

Take `O=C(O)c1c(NCc2cc(Cl)ccc2Cl)ccc2nccn12` [Example 34]: the IC50 fell in the range of 500 to 1000 nM.

`Cc1ccc(F)c(CNc2ccc3nccn3c2C(=O)O)c1F` [Example 35] yielded an IC50 of more than 1000 nM.

Turning to `O=C(O)c1c(NCc2c(F)cccc2F)ccc2nccn12` [Example 36], the IC50 was more than 1000 nM.

With `O=C(O)c1c(NCc2ccccc2OC(F)(F)F)ccc2nccn12` [Example 37], the IC50 fell in the range of 500 to 1000 nM.

`Cc1ccc(F)c(CNc2ccc3nccn3c2C(=O)O)c1Cl` [Example 38] registered an IC50 of more than 1000 nM.

In turn, `O=C(O)c1c(NCc2c(F)cccc2Cl)ccc2nccn12` [Example 39] showed an IC50 of more than 1000 nM.

Regarding `CCOc1ccccc1CNc1ccc2nccn2c1C(=O)O` [Example 40], the IC50 is more than 1000 nM.

Turning to `O=C(O)c1c(NCc2ccc(C(F)(F)F)cc2F)ccc2nccn12` [Example 41], the IC50 was in the range of 500 to 1000 nM.

`Cc1ccc(CNc2ccc3nccn3c2C(=O)O)c(F)c1` [Example 42] gave an IC50 of more than 1000 nM.

`O=C(O)c1c(NCc2cc(C(F)(F)F)ccc2F)ccc2nccn12` [Example 43] gave an IC50 of more than 1000 nM.

For the molecule `O=C(O)c1c(NCc2ccccc2-c2ccccc2)ccc2nccn12` [Example 44], the IC50 was 500 to 1000 nM.

For `O=C(O)c1c(NCc2ccc(F)c(F)c2)ccc2nccn12` [Example 45], the IC50 is not above 500 nM.

Take `COc1c(F)cc(CNc2ccc3nccn3c2C(=O)O)cc1F` [Example 46]: the IC50 was more than 1000 nM.

On to `COc1ccc(CNc2ccc3nccn3c2C(=O)O)cc1Cl` [Example 47], for which the IC50 is 500 to 1000 nM.

In turn, `O=C(O)c1c(NCc2ccc(C(F)(F)F)c(F)c2)ccc2nccn12` [Example 48] came in with an IC50 of more than 1000 nM.

Consider `Cc1ccc(CNc2ccc3nccn3c2C(=O)O)cc1F` [Example 49], for which the IC50 is more than 1000 nM.

Turning to `O=C(O)c1c(NCc2cccc(F)c2)ccc2nccn12` [Example 50], the IC50 was more than 1000 nM.

In turn, `COc1ccc(CNc2ccc3nccn3c2C(=O)O)cc1O` [Example 51] registered an IC50 not above 500 nM.

In turn, `O=C(O)c1c(NCc2cccc(-c3ccccc3)c2)ccc2nccn12` [Example 52] registered an IC50 of more than 1000 nM.

Consider `O=C(O)c1c(NCc2ccc(-c3cccs3)cc2)ccc2nccn12` [Example 53], for which the IC50 is more than 1000 nM.

In turn, `O=C(O)c1c(NCc2ccc(Oc3ccc(F)cc3)cc2)ccc2nccn12` [Example 54] gave an IC50 of more than 1000 nM.

As for `O=C(O)c1c(NCc2ccc(C(F)(F)F)cc2)ccc2nccn12` [Example 55], the half-maximal inhibitory concentration (IC50) was 500 to 1000 nM.

For `O=C(O)c1c(NCc2ccc(Cl)cc2F)ccc2nccn12` [Example 56], the IC50 is more than 1000 nM.

Molecule `Cc1cc(Cl)ccc1CNc1ccc2nccn2c1C(=O)O` [Example 57] registered an IC50 of 500 to 1000 nM.

`O=C(O)c1c(NCc2ccc(Cl)c(F)c2)ccc2nccn12` [Example 58] displayed an IC50 of more than 1000 nM.

With `N#Cc1ccc(CNc2ccc3nccn3c2C(=O)O)cc1` [Example 59], the IC50 is not above 500 nM.

In turn, `O=C(O)c1c(NCc2ccc(F)cc2C(F)(F)F)ccc2nccn12` [Example 60] displayed an IC50 not above 500 nM.

`Cc1cc(F)ccc1CNc1ccc2nccn2c1C(=O)O` [Example 61] registered an IC50 of 500 to 1000 nM.

Regarding `O=C(O)c1c(NCc2ccc(F)c(C(F)(F)F)c2)ccc2nccn12` [Example 62], the IC50 fell in the range of 500 to 1000 nM.

Turning to `Cc1cc(CNc2ccc3nccn3c2C(=O)O)ccc1F` [Example 63], the IC50 was more than 1000 nM.

For the molecule `O=C(O)c1c(NCc2ccc(N3CCOCC3)cc2)ccc2nccn12` [Example 64], the IC50 is more than 1000 nM.

Consider `CCCCc1ccc(CNc2ccc3nccn3c2C(=O)O)cc1` [Example 65], for which the IC50 is more than 1000 nM.
